Columns and labels:
[1] = test system: SJL/J mice infected with Theiler's murine encephalomyelitis virus; experiment: Spinal cord demyelination quantitation (lesion load) in TMEV-infected mice; assay type: in vivo, mouse
Experimental: (§1) All mice used in the experiments were SJL/J mice (Jackson Laboratories, Bar Harbor, Me.). Six- to eight-week-old mice were intracerebrally injected with 2.0×10^6 pfu of Daniel's strain of Theiler's murine encephalomyelitis virus.
(§2) Areas of spinal cord demyelination (lesion load) and remyelination (73) were determined from multiple cross-sections of plastic-embedded spinal cords, using a camera lucida system and a computerized drawing tablet (39). Briefly, mice were sacrificed by overdose with sodium pentobarbital and perfused by intracardiac puncture with Trumps fixative, containing 4% paraformaldehyde and 1% glutaraldehyde. Spinal cords were removed, post-fixed in osmium textroxide, and sectioned into 1 mm blocks. Every third block (10-12 blocks per spinal cord; cervical to lumbar range) was embedded in Araldite plastic. The embedded tissues were cross-sectioned at 1 μm thickness, and the slides stained with 4% paraphenylenediamine to highlight the myelin sheaths.
Using a camera lucida attached to a Zeiss photomicroscope and a ZIDAS interactive digital analysis system, three parameters were measured from each slide: total white matter area, demyelinated lesion area, and remyelination area. Outline of these regions were traced and the areas calculated by the computerized digital analysis system. Demyelination was expressed as the total lesion area as a percentage of total white matter area. Remyelination was expressed as the total remyelination area as a percentage of the total demyelinated lesion area. The criterion for remyelination by oligodendrocytes was abnormally thin myelin sheaths. All remyelination data refers to oligodendrocyte-mediated remyelination. Occasionally, Schwann-cell mediated remyelination was observed, characterized by abnormally thick myelin sheaths and nuclei juxtaposed to the myelin sheath.
Virus was injected on Day 0.
Chronically infected mice (124-365 days post-infection) were treated subcutaneously for periods of 41-76 days. […] These mice were sacrificed after 65 days. […] The members of this group were sacrificed after 65-76 days. […] Sacrifice of these mice occurred after 41-65 days. The control group of mice received PBS. In all groups, spinal cord demyelination was measured after sacrifice.
Chronically infected mice (160-477 days post-infection) were treated by intraperitoneal injection with antibodies for periods of 36-76 days. One group of mice received Normal antibodies, administered in 10 injections of 0.05 mg each for a total of 0.5 mg over 42 days. […] PBS was administered to the control group of mice. Spinal cord white matter demyelinating pathology was measured post-sacrifice for all mice.
Each mouse received 5 weekly injections for total antibody doses of 0.5 or 1.5 mg (0.1-0.3 mg/injection). After sacrifice, spinal cord demyelination was measured.

[2] = test system: SJL/J mice infected with Theiler's murine encephalomyelitis virus; experiment: Spinal cord remyelination quantitation in TMEV-infected mice; assay type: in vivo, mouse
Experimental: as §1
as §2, with “The embedded tissues were cross-sectioned at 1 μm thickness, and the slides stained with 4% paraphenylenediamine to highlight the myelin sheaths.” left out
Using a camera lucida attached to a Zeiss photomicroscope and a ZIDAS interactive digital analysis system, three parameters were measured from each slide: total white matter area, demyelinated lesion area, and remyelination area. Outline of these regions were traced and the areas calculated by the computerized digital analysis system. Demyelination was expressed as the total lesion area as a percentage of total white matter area. Remyelination was expressed as the total remyelination area as a percentage of the total demyelinated lesion area. […]

TMEV [3] = experiment: Serum anti-TMEV IgG titers after glatiramer acetate immunization; assay type: in vivo, Theiler's murine encephalomyelitis virus; conditions: four weeks after immunization, vs control mice
Experimental: An indirect ELISA was performed in which serum or a purified antibody was applied to plates that were pre-coated with glatiramer acetate or other protein antigens. The antigen of interest was dissolved in 0.1 M carbonate buffer, pH 9.5, and applied at 1 μg per well in 96-well polystrene plates. Incubation was overnight at 4° C. Plates were then rinsed with PBST (phosphate buffered saline containing 0.05% Tween 20 detergent) and incubated for 1 hr in PBSM (phosphate buffered saline containing 5% defatted milk powder). Plates were rinsed with PBST, then incubated for 4 hr at room temperature with 50×PBS. Plates were rinsed with PBST, then incubated with biotinylated secondary antibodies that were raised in goat. The secondary antibodies, diluted in PBSM 1:50, were specific to mouse IgG or mouse IgM. Incubation was for 2 hr at room temperature. Plates were rinsed in PBST, then PBS. Streptavidin-alkaline phosphatase conjugate diluted in PBS was applied to the plates for 2 hr room temperature. Plates were rinsed with PBST, with a final rinse in water. The colored reaction product was produced by incubation with p-nitrophenyl phosphatase in 0.1 M carbonate buffer plus 1 mM magnesium chloride. The reaction was stopped with 0.5 N sodium hydroxide. […] Optical absorbency was measured at a wavelength of 405 nm.
(§3) Serum titers of antibodies against TMEV and anti-TMEV DTH reactions were measured.

UV-inactivated TMEV = experiment: TMEV delayed type hypersensitivity (ear thickness); assay type: in vivo, mouse; conditions: immunized mice vs IFA control
Experimental: Ear thickness was measured prior to injection, and 24 and 48 hr after injection.
as §3

TMEV [4] = experiment: TMEV antigen expression (virus antigen-positive cells); assay type: in vivo, Theiler's murine encephalomyelitis virus; conditions: 6-9 wks after high-dose immunization
[5] = Serum titres of glatiramer acetate IgG after glatiramer acetate immunization (ELISA); assay type: in vivo, mouse
Experimental: The antigen of interest was dissolved in 0.1 M carbonate buffer, pH 9.5, and applied at 1 μg per well in 96-well polystrene plates. Incubation was overnight at 4° C. Plates were then rinsed with PBST (phosphate buffered saline containing 0.05% Tween 20 detergent) and incubated for 1 hr in PBSM (phosphate buffered saline containing 5% defatted milk powder). Plates were rinsed with PBST, then incubated for 4 hr at room temperature with 50×PBS. Plates were rinsed with PBST, then incubated with biotinylated secondary antibodies that were raised in goat. The secondary antibodies, diluted in PBSM 1:50, were specific to mouse IgG or mouse IgM. Incubation was for 2 hr at room temperature. Plates were rinsed in PBST, then PBS. Streptavidin-alkaline phosphatase conjugate diluted in PBS was applied to the plates for 2 hr room temperature. Plates were rinsed with PBST, with a final rinse in water. The colored reaction product was produced by incubation with p-nitrophenyl phosphatase in 0.1 M carbonate buffer plus 1 mM magnesium chloride. The reaction was stopped with 0.5 N sodium hydroxide. Antibody isotyping was performed using a detection kit and purified isotype standards from Zymed Laboratories (San Francisco, Calif.). Extrapolation of the concentration of each isotype within the antibody samples was based on the sample dilution that produced the absorbence signal falling within the most linear portion of each standard isotype curve. Optical absorbency was measured at a wavelength of 405 nm.
Antibodies from normal SJL serum (SJL Ig) and commercial, pooled mouse serum (Pooled Ig) were also purifed by Protein A/G chromatography.
Mice were sacrificed on Day 65 post-immunization. […] The secondary antibody was biotinylated anti-mouse IgG.
Serum was isolated from these mice on Day 62. […] Serum was isolated from these mice on Day 41. […] Serum was isolated on Day 76. […] The secondary antibody was biotinylated anti-mouse IgG.
The final passive transfer was on Day 35. After 41 days of treatment, both groups of mice were sacrificed and serum titres of Copolymer IgG was measured by ELISA. The secondary antibody was biotinylated anti-mouse IgG.

[6] = test system: lymph node-derived lymphocytes from MBP84-102- and PLP179-191-immunized mice; experiment: In vitro [3H]-thymidine proliferation of lymph node-derived lymphocytes from myelin peptide-immunized mice; assay type: cell-based, mouse; conditions: Experiment 6A; 53 hours culture
Experimental: Two mice were subcutaneously injected in the flanks with MBP 84-102 in complete Fruend's adjuvant (CFA). MBP84-102 was obtained by following the procedure of Hawes et al (24). A method similar to that of Tuohy et al. was employed to produce PLP179-191 (70). PLP179-191 in CFA was subcutaneously injected into the flanks of 1 mouse. […] In the last 13 hours of culture, 1 μCi of [^3H]-thymidine was added and its incorporation measured by scintillation counting of harvested cells.
Mice were subcutaneously injected in the flanks with MBP84-102 (2 mice) peptide in CFA. After 10 days, inguinal and peri-aortic lymph nodes were removed, dissociated, and grown for 74 hours in cultures in medium alone or with additional additives as shown in FIG. 17. In the last 12 hours of culture, 1 μCi of [^3H]-thymidine was added and its incorporation measured by scintillation counting of harvested cells.

multiple sclerosis = conditions: daily subcutaneous injections, 20 mg/injection; cited from earlier work
[7] = test system: experimental autoimmune encephalomyelitis (EAE); conditions: unlike MBP; cited from earlier work

Substance: L-glutamic acid polymer with L-alanine, L-lysine and L-tyrosine, acetate (salt) [glatiramer acetate]
- effect on extent of demyelination ([1]; early disease, 45 days post-infection, 0.1 mg/injection, 60 days of treatment): no statistically significant effect
- effect on demyelinating lesions ([1]; late disease, high dose (5 mg glatiramer acetate/IFA, 1-2 injections), vs PBS): expansion of the demyelinating lesions
- white matter demyelinated (mean lesion load) ([1]; late disease, high dose of glatiramer acetate): 20%
- effect on extent of demyelination ([1]; late disease, low doses (0.1 mg/injection), alone or with adjuvant): did not alter the extent of demyelination
- white matter demyelinated (mean lesion load) ([1]; late disease, low-dose glatiramer acetate): 10%
- remyelination of lesions (pathology) ([2]; Example 8, infected 6 months or longer, glatiramer acetate 0.1 mg/injection or antibodies 1.5 mg total): not more extensive than following the PBS treatment
- effect on extent of oligodendrocyte-mediated remyelination ([2]; late disease, s.c. treatment as Experiment 2A, alone or with IFA): did not affect the extent of oligodendrocyre-mediated remyelination
- anti-TMEV titers (total IgG, IgG1, IgG2a) (TMEV [3]): reduced
- anti-TMEV DTH reactions (UV-inactivated TMEV): reduced
- virus expression (virus antigen-positive cells) (TMEV [4]): tended to be higher
- highest antibody titer reached ([5]; chronically diseased mice immunized with 5 mg): 1.2 mg/mL
- dose dependence of production of antibodies against glatiramer acetate ([5]; chronically diseased mice, 0.1 vs 5 mg injections): highly dose-dependent
- influence of dose (0.1-1.0 mg) and injection timing on glatiramer acetate IgG titres ([5]; non-infected immunized mice): did not significantly influence glatiramer acetate IgG titres
- time required to achieve high antibody titres ([5]; non-infected immunized mice): Approximately 3 weeks
- lymphocyte proliferation [6]: did not induce significant proliferation
- clinical effect in multiple sclerosis (multiple sclerosis): reduce relapse rates, appearance of new lesions by magnetic resonance imaging (MRI), and progression of disability
- effect on EAE [7]: inhibits rather than induces

From US6800285B2 (priority 2000, dated 2004)
